Measurements taken from the supplement of paper PMC10307832.

compound: CCn1c(-c2nonc2N)nc2c(C#CC(C)(C)O)ncc(OC[C@H]3CCCNC3)c21 + Cc1nc(NC(=O)N2CCC[C@H]2C(N)=O)sc1-c1ccnc(C(C)(C)C(F)(F)F)c1 [Alpelisib] (partner 2 µM); test: relative viability (nuclei count vs DMSO), 5 days (fraction); higher = more cells survive; details: first compound 1 µM
Outline: (§1)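 Relative viability equals treated-well nuclei counts divided by vehicle-well nuclei counts. Counts came from 4× images of lung cancer cell lines grown in 1536-well plates for 5 days after pin-tool dosing on the day after seeding. Dosing used one drug alone or a fixed anchor-drug dose plus five library-drug doses (not always all listed) in √10 steps, and values are medians of duplicate plates.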

| Cell Line | relative viability |
| --- | --- |
| LC-2-ad | 0.565 |
| NCI-H1944 | 0.777 |
| NCI-H1975 | 0.583 |
| RERF-LC-KJ | 0.781 |
| ABC-1 | 0.715 |
| NCI-H358 | 0.701 |
| NCI-H650 | 1.24 |
| PC-3 [JPC-3] | 1.02 |

compound: CCOC1=CC=CC=C1N=NC2=C(NN(C2=O)C3=NC(=CS3)C4=CC=CC=C4)C [BAM7] + NC(=O)Nc1cc(-c2cccc(F)c2)sc1C(=O)N[C@H]1CCCNC1 [AZD7762] (partner 0.2 µM); test: as above; details: first compound 0.5 µM
Outline: as §1

| Cell Line | relative viability |
| --- | --- |
| HCC-78 | 0.635 |
| NCI-H322M | 0.554 |
| LCLC-97TM1 | 0.222 |
| A-427 | 0.743 |
| NCI-H441 | 1.35 |
| NCI-H1734 | 0.559 |
| NCI-H460 | 0.595 |
| NCI-H2347 | 0.768 |
| NCI-H1395 | 0.395 |
| 201T | 0.705 |
| NCI-H1915 | 0.676 |
| HCC-827 | 0.199 |
| LXF-289 | 1.12 |
| NCI-H23 | 0.165 |
| NCI-H647 | 0.559 |
| CAL-12T | 0.589 |
| NCI-H1651 | 0.444 |

| Cell Line | relative viability |
| --- | --- |
| EPLC-272H | 0.23 |
| NCI-H1355 | 0.654 |
| NCI-H3122 | 0.946 |
| NCI-H1437 | 1.1 |
| NCI-H1755 | 0.472 |
| HCC-15 | 1.29 |
| NCI-H1793 | 0.544 |
| PC-14 | 0.356 |
| EKVX | 0.871 |
| LC-2-ad | 0.916 |
| NCI-H1944 | 0.51 |
| NCI-H1975 | 0.725 |
| RERF-LC-KJ | 0.992 |
| ABC-1 | 0.755 |
| NCI-H358 | 0.62 |
| NCI-H650 | 0.913 |
| PC-3 [JPC-3] | 0.889 |

same assay, conditions: first compound 5 µM

| Cell Line | relative viability |
| --- | --- |
| HCC-78 | 1.4 |
| NCI-H322M | 0.467 |
| LCLC-97TM1 | 0.172 |
| A-427 | 0.848 |
| NCI-H441 | 1.46 |
| NCI-H1734 | 0.642 |
| NCI-H460 | 0.751 |
| NCI-H2347 | 0.657 |
| NCI-H1395 | 0.407 |
| 201T | 0.688 |
| NCI-H1915 | 0.671 |
| HCC-827 | 0.201 |
| LXF-289 | 1.17 |
| NCI-H23 | 0.35 |
| NCI-H647 | 0.488 |
| CAL-12T | 0.714 |
| NCI-H1651 | 0.46 |

| Cell Line | relative viability |
| --- | --- |
| EPLC-272H | 0.301 |
| NCI-H1355 | 0.66 |
| NCI-H3122 | 1.13 |
| NCI-H1437 | 1.11 |
| NCI-H1755 | 0.437 |
| HCC-15 | 1.24 |
| NCI-H1793 | 0.341 |
| PC-14 | 0.317 |
| EKVX | 0.617 |
| LC-2-ad | 0.832 |
| NCI-H1944 | 0.525 |
| NCI-H1975 | 0.763 |
| RERF-LC-KJ | 1.11 |
| ABC-1 | 1.29 |
| NCI-H358 | 0.519 |
| NCI-H650 | 0.992 |
| PC-3 [JPC-3] | 0.74 |

same assay, conditions: first compound 15.81 µM

| Cell Line | relative viability |
| --- | --- |
| HCC-78 | 0.702 |
| NCI-H322M | 0.544 |
| LCLC-97TM1 | 0.29 |
| A-427 | 0.802 |
| NCI-H441 | 0.888 |
| NCI-H1734 | 0.526 |
| NCI-H460 | 0.494 |
| NCI-H2347 | 0.902 |
| NCI-H1395 | 0.394 |
| 201T | 0.715 |
| NCI-H1915 | 0.759 |
| HCC-827 | 0.284 |
| LXF-289 | 1.13 |
| NCI-H23 | 0.287 |
| NCI-H647 | 0.592 |
| CAL-12T | 0.557 |
| NCI-H1651 | 0.473 |

| Cell Line | relative viability |
| --- | --- |
| EPLC-272H | 0.226 |
| NCI-H1355 | 0.68 |
| NCI-H3122 | 0.918 |
| NCI-H1437 | 0.945 |
| NCI-H1755 | 0.495 |
| HCC-15 | 1.06 |
| NCI-H1793 | 0.428 |
| PC-14 | 0.334 |
| EKVX | 0.668 |
| LC-2-ad | 0.832 |
| NCI-H1944 | 0.508 |
| NCI-H1975 | 0.642 |
| RERF-LC-KJ | 0.855 |
| ABC-1 | 0.863 |
| NCI-H358 | 0.5 |
| NCI-H650 | 1.01 |
| PC-3 [JPC-3] | 0.64 |

same assay, conditions: first compound 50 µM

| Cell Line | relative viability |
| --- | --- |
| HCC-78 | 0.627 |
| NCI-H322M | 0.583 |
| LCLC-97TM1 | 0.252 |
| A-427 | 0.737 |
| NCI-H441 | 1.12 |
| NCI-H1734 | 0.548 |
| NCI-H460 | 0.571 |
| NCI-H2347 | 0.794 |
| NCI-H1395 | 0.421 |
| 201T | 0.678 |
| NCI-H1915 | 0.741 |
| HCC-827 | 0.182 |
| LXF-289 | 1.04 |
| NCI-H23 | 0.255 |
| NCI-H647 | 0.459 |
| CAL-12T | 0.609 |
| NCI-H1651 | 0.45 |

| Cell Line | relative viability |
| --- | --- |
| EPLC-272H | 0.289 |
| NCI-H1355 | 0.697 |
| NCI-H3122 | 0.846 |
| NCI-H1437 | 1.02 |
| NCI-H1755 | 0.405 |
| HCC-15 | 1.21 |
| NCI-H1793 | 0.426 |
| PC-14 | 0.374 |
| EKVX | 0.704 |
| LC-2-ad | 0.805 |
| NCI-H1944 | 0.623 |
| NCI-H1975 | 0.632 |
| RERF-LC-KJ | 0.627 |
| ABC-1 | 0.783 |
| NCI-H358 | 0.55 |
| NCI-H650 | 1.15 |
| PC-3 [JPC-3] | 0.686 |
